The values that follow come from ChEMBL document CHEMBL5728884, “Kinase inhibitors and uses thereof” (2021).

Bounds are passed on as bounds.

The target in this assay is T1, Receptor-interacting serine/threonine-protein kinase 1 (Homo sapiens, UniProt Q13546).
T1 sequence (Q13546 whole entry): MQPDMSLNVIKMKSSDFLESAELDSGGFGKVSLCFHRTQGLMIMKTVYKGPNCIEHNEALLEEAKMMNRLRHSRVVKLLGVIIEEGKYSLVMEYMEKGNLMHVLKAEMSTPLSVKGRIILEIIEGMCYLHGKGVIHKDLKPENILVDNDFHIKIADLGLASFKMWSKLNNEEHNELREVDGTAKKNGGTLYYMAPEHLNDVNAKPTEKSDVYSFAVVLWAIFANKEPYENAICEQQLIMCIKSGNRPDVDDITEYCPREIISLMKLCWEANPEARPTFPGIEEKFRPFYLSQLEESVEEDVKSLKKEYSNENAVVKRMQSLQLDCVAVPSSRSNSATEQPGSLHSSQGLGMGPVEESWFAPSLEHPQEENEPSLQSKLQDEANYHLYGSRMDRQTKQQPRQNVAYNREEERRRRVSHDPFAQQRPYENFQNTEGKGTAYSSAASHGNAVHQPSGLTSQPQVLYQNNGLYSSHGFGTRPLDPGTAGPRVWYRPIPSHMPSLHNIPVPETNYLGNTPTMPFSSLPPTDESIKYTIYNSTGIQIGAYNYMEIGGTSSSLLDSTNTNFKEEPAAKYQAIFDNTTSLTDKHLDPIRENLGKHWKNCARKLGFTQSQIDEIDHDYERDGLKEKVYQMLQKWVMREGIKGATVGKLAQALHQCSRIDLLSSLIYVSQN
Briefly: Fluorescent Polarization Binding (FP Binding) Assay: Test compounds were serially diluted in DMSO at 100 fold final concentrations in the assay (1% DMSO final). In each well of a 384-well Plate were dispensed 0.1 μL of compound solution (or DMSO for controls) followed by 5 μL of GST-hRIPK1 (8-327) at twice the final concentrations in assay buffer (50 mM HEPES pH 7.5, 10 mM NaCl, 50 mM MgCl2, 0.02% CHAPS, 0.5 mM DTT and 0.01% Pluronic F127). For negative control the enzyme addition was replaced by assay buffer only.After addition of 5 μL of fluorescentlabeled ligand at twice the final concentrations in assay buffer, the plate was incubated at RT for […]. At the end, the binding was measured as FP value with the Envision (PerkinElmer) plate reader using filter for an excitation λ=531 nm FP and an emission λ=595 nm FP (S & P-pol). GST-hRIPK1 (8-327) enzyme was produced via Baculovirus expression.

Broadly, the IC50 is the midpoint of a concentration-inhibition curve. High values mean lower potency, low ones higher potency. For `CC1(C(=O)N2CCOc3ccncc3C2)CCN(c2ncc(F)cn2)CC1(F)F` (configuration not stated), the IC50 was less than 100 nM.
`Cc1nc(N2CCC(F)(C(=O)N3CCOc4c(C#N)cncc4C3)CC2)ncc1F`: the half-maximal inhibitory concentration (IC50) was less than 100 nM.
